Columns and labels:
Format in all cases: in vivo
[1] = system: Myzus persicae; assay: Myzus persicae oral test; details: 120 h, application rate 4 ppm, after 5 days, read-out: efficacy (aphids killed)
Procedure: To produce a suitable active ingredient formulation, 1 part by weight of active ingredient is dissolved with the stated parts by weight of solvent and made up to the desired concentration with water.
50 μl of the active ingredient preparation are transferred into microtitre plates and made up to a final volume of 200 μl with 150 μl of IPL41 insect medium (33%+15% sugar). Subselog Puently, the plates are sealed with parafilm, which a mixed population of green peach aphids (Myzus persicae) within a second microtitre plate is able to puncture and imbibe the solution.
(§1) After 5 days, the efficacy in % is determined. 100% means that all the aphids have been killed; 0% means that no aphids have been killed.

[2] = system: Musca domestica; assay: Musca domestica test; details: application rate 100 ppm, after 2 days, adult houseflies
Procedure: (§2) Solvent: dimethyl sulfoxide
(§3) To produce a suitable active ingredient formulation, 10 mg of active ingredient are mixed with 0.5 ml of dimethyl sulfoxide, and the concentrate is diluted with water to the desired concentration.
Vessels containing a sponge treated with sugar solution and the active ingredient formulation of the desired concentration are populated with 10 adult houseflies (Musca domestica).
After 2 days, the kill in % is determined. 100% means that all of the flies have been killed; 0% means that none of the flies have been killed.

[3] = system: Lucilia cuprina; assay: Lucilia cuprina test; details: application rate 100 ppm, after 2 days, L1 larvae
Procedure: as §2, §3
About 20 L1 larvae of the Australian sheep blowfly (Lucilia cuprina) are transferred into a test vessel containing minced horsemeat and the active ingredient formulation of the desired concentration.
After 2 days, the kill in % is determined. 100% means that all the larvae have been killed; 0% means that no larvae have been killed.

[4] = system: Ctenocephalides felis; assay: Ctenocephalides felis oral test; details: application rate 100 ppm in citrated cattle blood, after 2 days, adult cat fleas
Procedure: as §2
To produce a suitable active ingredient formulation, 10 mg of active ingredient are mixed with 0.5 ml of dimethyl sulfoxide. Dilution with citrated cattle blood gives the desired concentration.
About 20 unfed adult cat fleas (Ctenocephalides felis) are placed into a chamber which is closed at the top and bottom with gauze. A metal cylinder whose bottom end is closed with parafilm is placed onto the chamber. The cylinder contains the blood/active ingredient formulation, which can be imbibed by the fleas through the parafilm membrane.
After 2 days, the kill in % is determined. 100% means that all of the fleas have been killed; 0% means that none of the fleas have been killed.

[5] = system: Myzus persicae; assay: Myzus persicae spray test; details: foliar, 120 h, application rate 100 g/ha, after 5 days, Chinese cabbage leaf discs, read-out: efficacy (aphids killed)
Procedure: To produce a suitable active ingredient formulation, 1 part by weight of active ingredient is dissolved with the specified parts by weight of solvent and made up to the desired concentration with water containing an emulsifier concentration of 1000 ppm. To produce further test concentrations, the formulation is diluted with emulsifier-containing water.
Discs of Chinese cabbage leaves (Brassica pekinensis) infested by all stages of the green peach aphid (Myzus persicae) are sprayed with an active ingredient formulation of the desired concentration.
as §1

[6] = system: Boophilus microplus; assay: Boophilus microplus injection test; details: application rate 20 μg/animal, assessed after 7 days, engorged adult female cattle ticks
Procedure: as §2
To produce a suitable active ingredient formulation, 10 mg of active ingredient are mixed with 0.5 ml of solvent and the concentrate is diluted to the desired concentration with solvent.
1 μl of the active ingredient solution is injected into the abdomen of 5 engorged adult female cattle ticks (Boophilus microplus). The animals are transferred into dishes and kept in a climate-controlled room.
Efficacy is assessed after 7 days by laying of fertile eggs. Eggs which are not visibly fertile are stored in a climate-controlled cabinet until the larvae hatch after about 42 days. An efficacy of 100% means that none of the ticks has laid any fertile eggs; 0% means that all the eggs are fertile.

[7] = system: Rhipicephalus sanguineus; assay: Rhipicephalus sanguineus in vitro contact test with adult brown dog ticks; details: application rate 5 μg/cm^2 (=500 g/ha), after 48 h
Procedure: (§4) For the coating of the test tubes, 9 mg of active ingredient are first dissolved in 1 ml of acetone p.a. and then diluted to the desired concentration with acetone p.a. 250 μl of the solution are distributed homogeneously on the inner walls and base of a 25 ml test tube by turning and rocking on an orbital shaker (rocking rotation at 30 rpm for 2 h). With 900 ppm active ingredient solution and internal surface 44.7 cm^2, given homogeneous distribution, an area-based dose of 5 μg/cm^2 is achieved.
After the solvent has evaporated off, the tubes are populated with 5-10 adult dog ticks (Rhipicephalus sanguineus), sealed with a perforated plastic lid and incubated in a horizontal position in the dark at room temperature and ambient humidity. After 48 h, efficacy is determined. To this end, the ticks are knocked to the floor of the tube and incubated on a hotplate at 45-50° C. for not more than 5 min. Ticks which remain motionless on the floor or move in such an uncoordinated manner that they are unable to deliberately avoid the heat by climbing upwards are considered to be dead or moribund.
100% efficacy means that all the ticks were dead or moribund. 0% efficacy means that none of the ticks had been harmed.

[8] = system: Ctenocephalides felis; assay: Ctenocephalides felis in vitro contact test with adult cat fleas; details: application rate 5 μg/cm^2 (=500 g/ha), after 48 h
Procedure: as §4, with “walls and the base of” for “walls and base of”, “25 ml glass tube by” for “25 ml test tube by”, “900 ppm of active ingredient” for “900 ppm active ingredient”, “internal surface area 44.7 cm^2,” for “internal surface 44.7 cm^2,”
After the solvent has evaporated off, the tubes are populated with 5-10 adult cat fleas (Ctenocephalides felis), sealed with a perforated plastic lid and incubated in a horizontal position at room temperature and ambient humidity. After 48 h, efficacy is determined. To this end, the tubes are stood upright and the fleas are knocked to the base of the tube. Fleas which remain motionless at the base or move in an uncoordinated manner are considered to be dead or moribund.
100% efficacy means that all the fleas were dead or moribund. 0% efficacy means that no fleas were harmed.

Row | Structure (SMILES) | pest or weed control at 4 ppm [1] | efficacy (kill in %) [2] | efficacy (kill in %) [3] | efficacy (kill in %) [4] | pest or weed control at 100 g/ha [5] | efficacy (no laying of fertile eggs) [6] | efficacy (ticks dead or moribund) [7] | efficacy (fleas dead or moribund) [8]
1 | CCS(=O)(=O)c1c(-c2nc3cc(C(F)(F)F)ncc3n2C)nn2c1CCCC2 [Example I-02] | 100% | 80% | 100% | 90% | 90% | – | – | –
2 | CCS(=O)(=O)c1c(-c2nc3cc(C(F)(F)F)ncc3n2C)nn2c1CC(C)CC2 (stereo not drawn) [Example I-05] | 100% | 80% | – | 95% | 100% | 100% | 100% | 100%
